Reference: ChEMBL document CHEMBL5380779, “Small Molecules Targeting the RNA-Binding Protein HuR Inhibit Tumor Growth in Xenografts” (J Med Chem, 2023)
The source made the active and inactive calls. No cut-off for these calls is given here.

How the values were obtained:
[1] = system: MDA-MB-231; assay: Cytotoxicity against human MDA-MB-231 cells assessed as inhibition of cell growth by MTT assay; format: functional, cell-based
[2] = Inhibition of full-length HuR-ARE fluorescein-labeled Msi1 mRNA binding (unknown origin) incubated for 2 hrs by fluorescence polarization assay; set-up: species or system Homo sapiens
[3] = Inhibition of HuR-ARE fluorescein-labeled Msi1 mRNA binding (unknown origin) by fluorescence polarization assay; set-up: species or system Homo sapiens
[4] = system: MDA-MB-231; assay: Antitumor activity against human MDA-MB-231 cells xenografted iv dosed athymic NCr-nu/nu mouse assessed as reduction in tumor size administered 3 times a week for 3 weeks; format: functional, organism-based
[5] = molecular target: ELAV-like protein 1 (Homo sapiens) (UniProt Q15717); assay: Thermal stabilization of HuR in human MDA-MB-231 cells at 20 uM at 42 to 54 degreeC incubated for 1 hr by western blot based cellular thermal shift assay; format: cell-based
[6] = system: MDA-MB-231; assay: Inhibition of HuR-Bcl-2 mRNA binding in human MDA-MB-231 cells at 10 uM incubated for 6 hrs by RNP immunoprecipitation assay; format: cell-based
[7] = system: MDA-MB-231; assay: Inhibition of HuR-Msi2 mRNA binding in human MDA-MB-231 cells at 10 uM incubated for 6 hrs by RNP immunoprecipitation assay; format: cell-based
[8] = system: MDA-MB-231; assay: Inhibition of HuR-XIAP mRNA binding in human MDA-MB-231 cells at 10 uM incubated for 6 hrs by RNP immunoprecipitation assay; format: cell-based
[9] = system: MDA-MB-231; assay: Inhibition of cell invasion of human MDA-MB-231 cells at 10 uM incubated for 24 hrs by crystal violet staining based analysis; format: functional
[10] = system: MDA-MB-231; assay: Inhibition of HuR-TGFB2 mRNA binding in human MDA-MB-231 cells assessed as half life of TGFB2 in presence of actinomycin D (reference value: 7.202 hrs); format: cell-based
[11] = system: MDA-MB-231; assay: Inhibition of HuR-THBS1 mRNA binding in human MDA-MB-231 cells assessed as half life of THBS1 in presence of actinomycin D (reference value: 10.46 hrs); format: cell-based
[12] = system: MDA-MB-231; assay: Cytotoxicity against HuR knockout 1 human MDA-MB-231 cells assessed as inhibition of cell growth by MTT assay (reference value: 1.491 uM); format: functional, cell-based
[13] = system: MDA-MB-231; assay: Cytotoxicity against HuR knockout 2 human MDA-MB-231 cells assessed as inhibition of cell growth by MTT assay (reference value: 1.491 uM); format: functional, cell-based
[14] = molecular target: ELAV-like protein 1 (Homo sapiens) (UniProt Q15717); assay: Thermal stabilization of HuR in human MDA-MB-231 cells at 10 uM at 42 to 54 degreeC incubated for 1 hr by western blot based cellular thermal shift assay; format: cell-based
[15] = system: MDA-MB-231; assay: Inhibition of HuR-Bcl-2 mRNA binding in human MDA-MB-231 cells at 5 uM incubated for 6 hrs by RNP immunoprecipitation assay; format: cell-based
[16] = system: MDA-MB-231; assay: Inhibition of HuR-Msi2 mRNA binding in human MDA-MB-231 cells at 5 uM incubated for 6 hrs by RNP immunoprecipitation assay; format: cell-based
[17] = system: MDA-MB-231; assay: Inhibition of HuR-XIAP mRNA binding in human MDA-MB-231 cells at 5 uM incubated for 6 hrs by RNP immunoprecipitation assay; format: cell-based
[18] = system: MDA-MB-231; assay: Inhibition of HuR-16-nt biotinylated ARE Msi1 mRNA binding in human MDA-MB-231 cells at 20 uM by Western blotting analysis based pull-down assay; format: cell-based
[19] = system: MDA-MB-231; assay: Inhibition of HuR-16-nt biotinylated ARE Msi1 mRNA binding in human MDA-MB-231 cells at 10 uM by Western blotting analysis based pull-down assay; format: cell-based
[20] = system: MDA-MB-231; assay: Downregulation of Bcl-2 protein expression in human MDA-MB-231 cells incubated for 48 hrs by Western blotting analysis; format: functional, cell-based; details: dose 5-10 µM
[21] = system: MDA-MB-231; assay: Downregulation of Msi2 protein expression in human MDA-MB-231 cells incubated for 48 hrs by Western blotting analysis; format: functional, cell-based; details: dose 5-10 µM
[22] = system: MDA-MB-231; assay: Downregulation of XIAP protein expression in human MDA-MB-231 cells incubated for 48 hrs by Western blotting analysis; format: functional, cell-based; details: dose 5-10 µM
[23] = system: MDA-MB-231; assay: Downregulation of HuR protein expression in human MDA-MB-231 cells at 5 to 10 uM incubated for 48 hrs by Western blotting analysis; format: functional, cell-based; details: dose 5-10 µM
[24] = system: MDA-MB-231; assay: Inhibition of cell invasion of human MDA-MB-231 cells at 5 uM incubated for 24 hrs by crystal violet staining based analysis; format: functional

Chain of ELAV-like protein 1 (Homo sapiens) (Q15717 whole entry): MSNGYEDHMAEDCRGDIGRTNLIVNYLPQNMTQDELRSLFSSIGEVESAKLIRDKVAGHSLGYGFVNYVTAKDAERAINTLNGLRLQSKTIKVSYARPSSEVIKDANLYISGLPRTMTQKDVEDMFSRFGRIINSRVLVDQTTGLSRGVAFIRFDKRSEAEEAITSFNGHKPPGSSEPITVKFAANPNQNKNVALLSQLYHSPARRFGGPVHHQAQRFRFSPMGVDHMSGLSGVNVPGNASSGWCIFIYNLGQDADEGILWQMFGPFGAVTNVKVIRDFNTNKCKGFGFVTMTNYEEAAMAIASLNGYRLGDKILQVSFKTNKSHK

SMILES	IC50 [1] [µM]	Ki [2] [µM]	further results
CCOC(=O)CCc1cc2cc(NC(=O)c3ccc(C(C)(C)C)cc3)ccc2s1	6.52	11.8	–
CC(C)(C)c1ccc(C(=O)Nc2ccc3[nH]c(/C=C/C(=O)NO)cc3c2)cc1	2.24	0.34	–
CC(C)(C)c1ccc(S(=O)(=O)Nc2ccc3[nH]c(C(=O)NO)cc3c2)cc1	32	1.75	–
O=C(Nc1ccc2sc(C(=O)NO)cc2c1)c1ccccn1	4.43	–	–
CC(C)(C)c1ccc(S(=O)(=O)Nc2ccc3[nH]c(C(=O)O)cc3c2)cc1	> 100	6.17	–
COC(=O)c1cc2cc(NC(=O)c3ccc(C(C)(C)C)cc3)ccc2s1	5.28	> 20	–
CC(C)(C)c1ccc(C(=O)Nc2ccc3sc(C(=O)NO)cc3c2)cc1	3.71	0.44	–
CCOC(=O)/C=C/c1cc2cc(NC(=O)c3ccc(C(C)(C)C)cc3)ccc2s1	57.7	13.3	–
CCOC(=O)/C=C/c1cc2cc(NC(=O)c3ccc(C(C)(C)C)cc3)ccc2[nH]1	1.13	> 20	–
CCOC(=O)/C=C/c1cc2cc(NC(=O)c3ccc(N(C)C)cc3)ccc2[nH]1	76.3	4.39	–
CC(C)(C)c1ccc(C(=O)Nc2ccc3sc(/C=C/C(=O)NO)cc3c2)cc1	1.33	0.15	IC50 [3]: 0.597 µM; Ki [3]: 0.139 µM
CC(=O)O[C@@]12CO[C@@H]1C[C@H](O)[C@@]1(C)C(=O)[C@H](O)C3=C(C)[C@@H](OC(=O)[C@H](O)[C@@H](NC(=O)OC(C)(C)C)c4ccccc4)C[C@@](O)([C@@H](OC(=O)c4ccccc4)[C@H]21)C3(C)C	–	–	Activity [4]: Active
CCOC(=O)c1cc2cc(NS(=O)(=O)c3ccc(C(C)(C)C)cc3)ccc2[nH]1	31.8	> 20	–
O=C(Nc1ccc2[nH]c(C(=O)NO)cc2c1)c1ccccn1	75.3	–	Activity [5]: inactive; inhibition [6]: inactive; inhibition [7]: inactive; inhibition [8]: inactive; inhibition [9]: inactive; T1/2 [10]: 7.09 h; T1/2 [11]: 9.03 h
CC(C)(C)c1ccc(S(=O)(=O)Nc2ccc3sc(/C=C/C(=O)NO)cc3c2)cc1	–	–	IC50 [3]: 3.34 µM; Ki [3]: 0.783 µM
CC(C)(C)c1ccc(C(=O)Nc2ccc3sc(/C=C/C(=O)O)cc3c2)cc1	72.1	0.97	–
CN(C)c1ccc(C(=O)Nc2ccc3sc(C(=O)NO)cc3c2)cc1	1.31	–	IC50 [12]: 3.66 µM; IC50 [13]: 3.01 µM; Activity [14]: Active; inhibition [15]: Active; inhibition [16]: Active; inhibition [17]: Active; inhibition [18]: inactive; inhibition [19]: Active; Activity [20]: Dose-Dependent Effect; Activity [21]: Dose-Dependent Effect; Activity [22]: Dose-Dependent Effect; Activity [23]: inactive; inhibition [24]: Active
CCOC(=O)c1cc2cc(NC(=O)c3ccc(N(C)C)cc3)ccc2[nH]1	> 100	–	–
COC(=O)c1cc2cc(NS(=O)(=O)c3ccc(C(C)(C)C)cc3)ccc2s1	27.4	15.4	–
CCOC(=O)c1cc2cc(NC(=O)c3ccc(C(C)(C)C)cc3)ccc2[nH]1	25.1	> 20	–

SMILES	IC50 [1] [µM]	Ki [2] [µM]	further results
O=C(Nc1ccc2sc(C(=O)O)cc2c1)c1ccccn1	> 100	–	–
CC(C)(C)c1ccc(S(=O)(=O)Nc2ccc3sc(C(=O)O)cc3c2)cc1	> 100	2.42	–
CC(C)(C)c1ccc(C(=O)Nc2ccc3sc(CCC(=O)O)cc3c2)cc1	19.8	3.83	–
CN(C)c1ccc(C(=O)Nc2ccc3[nH]c(/C=C/C(=O)NO)cc3c2)cc1	8.91	0.69	–
CC(C)(C)c1ccc(C(=O)Nc2ccc3sc(C(=O)O)cc3c2)cc1	90.5	5.08	–
O=C(Nc1ccc2[nH]c(C(=O)O)cc2c1)c1ccccn1	> 100	–	–
CC(C)(C)c1ccc(C(=O)O)cc1	–	–	IC50 [2]: > 200 µM
CN(C)c1ccc(C(=O)Nc2ccc3[nH]c(C(=O)NO)cc3c2)cc1	11.3	–	–
CN(C)c1ccc(C(=O)Nc2ccc3[nH]c(C(=O)O)cc3c2)cc1	99.8	–	–
CC(C)(C)c1ccc(S(=O)(=O)Nc2ccc3sc(C(=O)NO)cc3c2)cc1	12.9	3.24	–
COC(=O)c1cc2cc(NC(=O)c3ccc(N(C)C)cc3)ccc2s1	> 100	–	–
O=C(O)c1cc2cc([N+](=O)[O-])ccc2[nH]1	–	6.95	IC50 [2]: 29.7 µM
CC(C)(C)c1ccc(C(=O)Nc2ccc3[nH]c(/C=C/C(=O)O)cc3c2)cc1	> 100	3.35	–
COC(=O)c1cc2cc(NC(=O)c3ccccn3)ccc2s1	> 100	–	–
CN(C)c1ccc(C(=O)Nc2ccc3[nH]c(/C=C/C(=O)O)cc3c2)cc1	> 100	7.76	–
CC(C)(C)c1ccc(C(=O)Nc2ccc3sc(CCC(=O)NO)cc3c2)cc1	3.49	0.83	–
CCOC(=O)c1cc2cc(NC(=O)c3ccccn3)ccc2[nH]1	> 100	–	–
CN(C)c1ccc(C(=O)Nc2ccc3sc(C(=O)O)cc3c2)cc1	> 100	–	–
CC(C)(C)c1ccc(C(=O)Nc2ccc3[nH]c(C(=O)O)cc3c2)cc1	> 100	–	–
